PubChem BioAssay AID192 (DTP/NCI, 2004)
Inconclusive results and toxic doses are left out. The calls were made as follows: active = survival T/C of 150% or more; inactive = T/C below 125% in these data. Square brackets hold non-standard residues; d marks the D form. Peptide text beside a SMILES is read from it. * marks the point of attachment. ξ: configuration not given here. ξF = NC(Cc1ccccc1)C(=O)O; Cbz = O=C(OCc1ccccc1)*; Abu = CC[CH](N)C(=O)O; Sar = CNCC(=O)O

System: BDF1 mice, B16 melanoma ip, median survival T/C
Test: NCI In Vivo Anticancer Drug Screen. Data for tumor model B16 Melanoma (intraperitoneal) in B6D2F1 (BDF1) mice
Details: endpoint: median survival time, higher = longer survival
Procedure, shortened: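 Each result divides a survival or tumor-size measurement in the compound-treated group by the same measurement in the vehicle group.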

[1] = dose: 20.0 mg/kg/injection, schedule: Q01DX009 (ip), vehicle: Klucel (hydroxypropylcellulose) (HPC)
[2] = dose: 12.5 mg/kg/injection, schedule: Q01DX009 (ip), vehicle: saline with Tween-80
[3] = dose: 25.0 mg/kg/injection, schedule: Q01DX009 (ip), vehicle: saline with Tween-80
[4] = dose: 50.0 mg/kg/injection, schedule: Q01DX009 (ip), vehicle: saline with Tween-80
[5] = dose: 1.56 mg/kg/injection, schedule: Q01DX009 (ip), vehicle: saline
[6] = dose: 6.25 mg/kg/injection, schedule: Q01DX009 (ip), vehicle: saline
[7] = dose: 12.5 mg/kg/injection, schedule: Q01DX009 (ip), vehicle: saline
[8] = dose: 25.0 mg/kg/injection, schedule: Q01DX009 (ip), vehicle: saline
[9] = dose: 50.0 mg/kg/injection, schedule: Q01DX009 (ip), vehicle: saline
[10] = dose: 100.0 mg/kg/injection, schedule: Q01DX009 (ip), vehicle: saline
[11] = dose: 200.0 mg/kg/injection, schedule: Q01DX009 (ip), vehicle: saline
[12] = dose: 100.0 mg/kg/injection, schedule: Q01DX009 (ip), vehicle: saline with Tween-80
[13] = dose: 200.0 mg/kg/injection, schedule: Q01DX009 (ip), vehicle: saline with Tween-80
[14] = dose: 100.0 mg/kg/injection, schedule: Q01DX009 (ip), vehicle: Klucel (hydroxypropylcellulose) (HPC)
[15] = dose: 200.0 mg/kg/injection, schedule: Q01DX009 (ip), vehicle: Klucel (hydroxypropylcellulose) (HPC)
[16] = dose: 100.0 mg/kg/injection, schedule: Q04DX003 (ip), vehicle: Klucel (hydroxypropylcellulose) (HPC)
[17] = dose: 200.0 mg/kg/injection, schedule: Q04DX003 (ip), vehicle: Klucel (hydroxypropylcellulose) (HPC)
[18] = dose: 400.0 mg/kg/injection, schedule: Q01DX009 (ip), vehicle: Klucel (hydroxypropylcellulose) (HPC)
[19] = dose: 400.0 mg/kg/injection, schedule: Q04DX003 (ip), vehicle: Klucel (hydroxypropylcellulose) (HPC)
[20] = dose: 37.5 mg/kg/injection, schedule: Q01DX009 (ip), vehicle: Klucel (hydroxypropylcellulose) (HPC)
[21] = dose: 75.0 mg/kg/injection, schedule: Q01DX009 (ip), vehicle: Klucel (hydroxypropylcellulose) (HPC)

Measured: T/C

CCOC(=O)CNC(=O)CCCCSc1ncnc2nc[nH]c12
inactive: [1] 88 % of control | dose: 40.0 mg/kg/injection, schedule: Q01DX009 (ip), vehicle: Klucel (hydroxypropylcellulose) (HPC) 91 % of control | dose: 80.0 mg/kg/injection, schedule: Q01DX009 (ip), vehicle: Klucel (hydroxypropylcellulose) (HPC) 89 % of control | dose: 160.0 mg/kg/injection, schedule: Q01DX009 (ip), vehicle: Klucel (hydroxypropylcellulose) (HPC) 89 % of control | dose: 320.0 mg/kg/injection, schedule: Q01DX009 (ip), vehicle: Klucel (hydroxypropylcellulose) (HPC) 87 % of control

Cc1[nH]c(=O)[nH]c(=O)c1NC(=O)c1ccccc1[N+](=O)[O-]
inactive: [2] 100 % of control | [3] 102 % of control | [4] 102 % of control

C[CH2][Sn]([CH2]C)([CH2]C)[O]C(=O)CO
inactive: [5] 97 % of control | dose: 3.13 mg/kg/injection, schedule: Q01DX009 (ip), vehicle: saline 87 % of control

COc1cc(C(O)C(Cl)(Cl)Cl)ccc1O (centres undefined)
inactive: dose: 100.0 mg/kg/injection, schedule: Q01DX009 (ip), vehicle: other 94 % of control | dose: 200.0 mg/kg/injection, schedule: Q01DX009 (ip), vehicle: other 91 % of control

c1ccc(C2CN3CCSC3=N2)cc1 (centres undefined)
inactive: [5] 103 % of control | dose: 3.12 mg/kg/injection, schedule: Q01DX009 (ip), vehicle: saline 104 % of control | [6] 96 % of control | [7] 94 % of control | [8] 100 % of control

[Cl][Pt+2][Cl].[NH-]c1ccc(Cl)cc1[NH-]
inactive: dose: 2.5 mg/kg/injection, schedule: Q01DX009 (ip), vehicle: saline with Tween-80 108 % of control | dose: 40.0 mg/kg/injection, schedule: Q01DX009 (ip), vehicle: saline with Tween-80 123 % of control
active: dose: 20.0 mg/kg/injection, schedule: Q01DX009 (ip), vehicle: saline with Tween-80 153 % of control

CCCCOCCC1CCNCC1
inactive: [7] 116 % of control | [8] 106 % of control | [9] 110 % of control

CCC1C(=O)NC(=O)C1(C)c1ccccc1 (centres undefined)
inactive: [8] 105 % of control | [9] 108 % of control | [10] 100 % of control | [11] 100 % of control

CCN(CC)CCNC1CCCCC1
inactive: [8] 102 % of control | [9] 112 % of control | [10] 98 % of control

O=C(NC(Cc1ccccc1)C(=O)N1CCCC1C(=O)O)OCc1ccccc1 (stereo not drawn) (Cbz-Phe-Pro-OH; configuration not given here)
inactive: [4] 99 % of control | [12] 99 % of control | [13] 91 % of control

CN(CC(=O)NC(Cc1ccccc1)C(=O)O)C(=O)OCc1ccccc1 (centres undefined) (Cbz-[Sar]-[ξF]-OH)
inactive: [4] 97 % of control | [12] 96 % of control | [13] 103 % of control

OC1CC2CC1C=C2c1ccccc1 (centres undefined)
inactive: dose: 100.0 mg/kg/injection, schedule: Q04DX003 (ip), vehicle: saline with Tween-80 102 % of control | dose: 200.0 mg/kg/injection, schedule: Q04DX003 (ip), vehicle: saline with Tween-80 105 % of control | dose: 400.0 mg/kg/injection, schedule: Q04DX003 (ip), vehicle: saline with Tween-80 94 % of control

O=C1NC(c2cccc(OCc3ccccc3)c2)Nc2ccccc21 (centres undefined)
inactive: dose: 25.0 mg/kg/injection, schedule: Q01DX009 (ip), vehicle: Klucel (hydroxypropylcellulose) (HPC) 92 % of control | dose: 50.0 mg/kg/injection, schedule: Q01DX009 (ip), vehicle: Klucel (hydroxypropylcellulose) (HPC) 100 % of control | [14] 103 % of control | [15] 108 % of control

Cc1cc2c3ccccc3ccc2[n+]2ccccc12
inactive: [6] 95 % of control | [7] 93 % of control

CCC(N)C(=O)NC(C(N)=O)C(C)C (centres undefined) (H-[Abu]-Val-NH2; configuration not given here)
inactive: [9] 90 % of control | [10] 100 % of control | [11] 110 % of control | dose: 400.0 mg/kg/injection, schedule: Q01DX009 (ip), vehicle: saline 100 % of control

O=CNC(Cc1ccccc1)Cc1ccccc1
inactive: dose: 5.0 mg/kg/injection, schedule: Q01DX009 (ip), vehicle: Klucel (hydroxypropylcellulose) (HPC) 96 % of control | dose: 10.0 mg/kg/injection, schedule: Q01DX009 (ip), vehicle: Klucel (hydroxypropylcellulose) (HPC) 100 % of control | [1] 100 % of control

O=S(=O)(CCBr)CCBr
inactive: [3] 93 % of control | [4] 93 % of control | [12] 98 % of control

c1ccc([P+](C[P+](c2ccccc2)(c2ccccc2)c2ccccc2)(c2ccccc2)c2ccccc2)cc1
inactive: dose: 0.75 mg/kg/injection, schedule: Q01DX009 (ip), vehicle: saline 87 % of control | dose: 1.5 mg/kg/injection, schedule: Q01DX009 (ip), vehicle: saline 93 % of control

Cc1ccc(NC(=S)N(C)C)cc1Cl
inactive: [14] 100 % of control | [16] 104 % of control | [15] 88 % of control | [17] 90 % of control | [18] 88 % of control | [19] 95 % of control

CCC(c1ccc(OC)cc1)C(CC)c1ccc(O)c(CN2CCN(C)CC2)c1 (centres undefined)
inactive: [8] 93 % of control | [9] 97 % of control

Cc1nc(N)[nH]c(=O)c1Br
inactive: [16] 97 % of control | [17] 93 % of control | [19] 89 % of control

CN(C)N=Nc1c(Cl)cccc1Cl
inactive: dose: 18.75 mg/kg/injection, schedule: Q01DX009 (ip), vehicle: Klucel (hydroxypropylcellulose) (HPC) 101 % of control | [20] 105 % of control

O=[N+]([O-])c1ccc2c(N=Nc3ccc4ccccc4c3O)c(O)cc(S(=O)(=O)O)c2c1
inactive: [20] 94 % of control | [21] 98 % of control

C[C@]12CC[C@H]3[C@@H](CC[C@]4(O)C[C@@H](O)CC[C@]34C=O)[C@@]1(O)CC[C@@H]2C1=CC(=O)OC1
inactive: [2] 104 % of control | [3] 92 % of control | [4] 97 % of control | [12] 97 % of control | [13] 90 % of control

FC(F)(F)S.[Hg]
inactive: dose: 1.25 mg/kg/injection, schedule: Q01DX009 (ip), vehicle: saline 104 % of control | dose: 2.5 mg/kg/injection, schedule: Q01DX009 (ip), vehicle: saline 100 % of control | dose: 5.0 mg/kg/injection, schedule: Q01DX009 (ip), vehicle: saline 102 % of control

COc1cc(O)c2c(c1)Cc1cc(C)cc(O)c1C2=O
inactive: dose: 6.25 mg/kg/injection, schedule: Q01DX009 (ip), vehicle: saline with Tween-80 93 % of control | [2] 98 % of control | [3] 98 % of control

CC(=O)C12OC1(C)CC1C3CC=C4CC(O)CCC4(C)C3CCC12C (centres undefined)
inactive: [14] 107 % of control | [15] 95 % of control | [18] 105 % of control

CN1CCCN(C(c2ccccc2)c2ccc(Cl)cc2)CC1 (centres undefined)
inactive: dose: 1.95 mg/kg/injection, schedule: Q01DX009 (ip), vehicle: saline 92 % of control | dose: 3.9 mg/kg/injection, schedule: Q01DX009 (ip), vehicle: saline 105 % of control | dose: 7.81 mg/kg/injection, schedule: Q01DX009 (ip), vehicle: saline 105 % of control | dose: 15.62 mg/kg/injection, schedule: Q01DX009 (ip), vehicle: saline 97 % of control | dose: 31.25 mg/kg/injection, schedule: Q01DX009 (ip), vehicle: saline 94 % of control

COc1cc2c(=O)oc3c(OC)c(O)cc4c(=O)oc(c1OC)c2c34
inactive: dose: 4.0 mg/kg/injection, schedule: Q01DX009 (ip), vehicle: saline with Tween-80 100 % of control | dose: 8.0 mg/kg/injection, schedule: Q01DX009 (ip), vehicle: saline with Tween-80 94 % of control | dose: 16.0 mg/kg/injection, schedule: Q01DX009 (ip), vehicle: saline with Tween-80 96 % of control | dose: 32.0 mg/kg/injection, schedule: Q01DX009 (ip), vehicle: saline with Tween-80 90 % of control

Cc1ccc(Cl)cc1NC(=O)Nc1ccc(Cl)c(Cl)c1
inactive: [21] 97 % of control | dose: 150.0 mg/kg/injection, schedule: Q01DX009 (ip), vehicle: Klucel (hydroxypropylcellulose) (HPC) 92 % of control

CC(Br)C(=O)NC(Cc1ccccc1)C(=O)O (centres undefined)
inactive: [4] 94 % of control | [12] 91 % of control
